Target: T1, HsTRPM4 (Homo sapiens, UniProt Q8TD43)
T1 construct: gene TRPM4; full-length, wild-type codon-optimized gene, C-terminal HA and FLAG tags, pcDNA3.1; patch clamp in transiently transfected cells (TsA-201); cryo-EM from HEK293F, SMA native nanodiscs, C4 symmetry (homotetramer)
Assay: cryo-EM structure, […] A
Type: binding
Details: endogenous lipid assigned from density, three sites per protomer, SMA native nanodiscs

T1 sequence (Q8TD43 whole entry): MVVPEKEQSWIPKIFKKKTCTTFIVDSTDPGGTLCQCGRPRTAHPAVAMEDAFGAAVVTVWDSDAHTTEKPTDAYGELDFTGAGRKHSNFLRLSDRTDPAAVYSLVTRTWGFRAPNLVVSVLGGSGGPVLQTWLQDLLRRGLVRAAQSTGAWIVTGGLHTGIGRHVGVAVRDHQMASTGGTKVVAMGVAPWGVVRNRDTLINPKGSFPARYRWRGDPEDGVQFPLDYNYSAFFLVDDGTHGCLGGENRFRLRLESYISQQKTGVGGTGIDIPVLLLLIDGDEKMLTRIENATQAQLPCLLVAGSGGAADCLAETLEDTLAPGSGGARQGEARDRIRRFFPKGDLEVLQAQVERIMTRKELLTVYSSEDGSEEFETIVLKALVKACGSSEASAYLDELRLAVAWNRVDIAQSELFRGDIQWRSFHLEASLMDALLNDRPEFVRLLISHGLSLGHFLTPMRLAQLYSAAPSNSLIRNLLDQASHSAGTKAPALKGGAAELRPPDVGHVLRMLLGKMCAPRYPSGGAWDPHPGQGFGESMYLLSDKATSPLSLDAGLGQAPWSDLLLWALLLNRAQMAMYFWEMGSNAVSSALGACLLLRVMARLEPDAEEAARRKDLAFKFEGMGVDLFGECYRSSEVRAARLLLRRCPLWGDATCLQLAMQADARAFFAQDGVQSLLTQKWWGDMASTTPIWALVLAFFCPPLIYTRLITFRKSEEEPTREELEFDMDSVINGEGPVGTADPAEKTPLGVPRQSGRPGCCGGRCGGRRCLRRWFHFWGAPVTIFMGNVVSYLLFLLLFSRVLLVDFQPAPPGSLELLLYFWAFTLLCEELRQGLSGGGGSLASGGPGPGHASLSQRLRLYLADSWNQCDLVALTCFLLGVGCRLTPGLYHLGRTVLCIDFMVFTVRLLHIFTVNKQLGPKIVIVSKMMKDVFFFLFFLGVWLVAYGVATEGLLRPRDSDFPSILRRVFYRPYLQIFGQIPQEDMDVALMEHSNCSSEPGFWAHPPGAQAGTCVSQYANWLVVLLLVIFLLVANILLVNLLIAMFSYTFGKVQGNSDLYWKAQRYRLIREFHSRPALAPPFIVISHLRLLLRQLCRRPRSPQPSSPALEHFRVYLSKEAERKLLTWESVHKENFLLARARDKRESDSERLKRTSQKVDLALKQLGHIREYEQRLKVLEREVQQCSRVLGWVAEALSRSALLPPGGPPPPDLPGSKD

## CC(C)CCC[C@@H](C)[C@H]1CC[C@H]2[C@@H]3CC=C4C[C@@H](O)CC[C@]4(C)[C@H]3CC[C@]12C [cholesterol]
  cryo-EM structure, 3.67 A: primarily three densities for cholesterol molecules bound to TRPM4 observed

From PMC11743598, “Identification of a binding site for small molecule inhibitors targeting human TRPM4” (Nature Communications, 2025)
